Experimental data as given in ChEMBL document CHEMBL1145513, “S-adenosylmethionine-dependent protein methylation in mammalian cytosol via tyrphostin modification by catechol-O-methyltransferase” (J Biol Chem, 2007).
The source made the active and inactive calls. The rule behind the calls is not given here.

Assays:
Sus scrofa [1] = organism: Sus scrofa; experiment: Activity of pig recombinant catechol-O-methyltransferase assessed per unit enzyme
Sus scrofa [2] = organism: Sus scrofa; experiment: Inhibition of pig recombinant catechol-O-methyltransferase at 100 uM

| Structure (SMILES) | Activity (Sus scrofa [1]) [pmol/min] | Activity (Sus scrofa [2]) |
| --- | --- | --- |
| N#C/C(=C\c1ccc(O)c(O)c1)C(=O)NCCCCc1ccccc1 | 2.84 |  |
| C[C@H](NC(=O)/C(C#N)=C/c1ccc(O)c(O)c1)c1ccccc1 | 3.08 |  |
| N#CC(C#N)=Cc1ccc(O)c(O)c1 | 2.44 |  |
| C[C@@H](NC(=O)/C(C#N)=C/c1ccc(O)c(O)c1)c1ccccc1 | 3.06 |  |
| COc1c(C(C)(C)C)cc(C=C(C#N)C#N)cc1C(C)(C)C | 0.04 |  |
| N#C/C(=C\c1ccc(O)c(O)c1)C(N)=S | 2.45 |  |
| N#CC(C#N)=C(N)/C(C#N)=C/c1cc(O)c(O)c(O)c1 | 1.79 |  |
| N#CC(C#N)=Cc1ccc(O)cc1 | 0.05 |  |
| N#CC(C#N)=Cc1cc(O)c(O)c(O)c1 | 1.65 |  |
| N#C/C(=C\c1ccc(O)c(O)c1)C(=O)O | 3.67 |  |
| N#C/C(=C\c1ccc(O)c(O)c1)C(=O)NCCCc1ccccc1 | 3.11 |  |
| N#C/C(=C\c1ccc(O)c(O)c1)C(=O)NCc1ccccc1 | 3.06 |  |
| N#CC(C#N)=Cc1cc(O)c(O)c([N+](=O)[O-])c1 | 0.05 | Active |
| N#C/C(=C\c1ccc(O)c(O)c1)C(N)=O | 2.98 |  |
